Experiments:
Test in all cases: area under concentration-response curve (viability) (AUC (a.u.)); higher = less active
Settings in all cases: 48 h
NCI-H295R = system: NCI-H295R
Procedure, shortened: (§1)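 In 1,536-well plates, 500–1,000 cells/well of three adrenocortical carcinoma cell lines in 5 µL medium received 23 nL of each library compound across 11 concentrations. At 48 h, CellTiter-Glo was incubated for 15 minutes at room temperature and luminescence measured. Per-plate normalisation used vehicle and empty-well controls, and only inhibitory or non-responding curve classes were kept when fitting concentration-response curves for AC50 and area under the curve.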

CU-ACC1 = system: CU-ACC1
Procedure, shortened: as §1

CU-ACC2 = system: CU-ACC2
Procedure, shortened: as §1

SMILES | area under concentration-response curve (NCI-H295R) | area under concentration-response curve (CU-ACC1) | area under concentration-response curve (CU-ACC2)
C[C@]1(c2nc3c(C(N)=O)cccc3[nH]2)CCCN1 | 521 | 495 | 564
CC[C@H]1OC(=O)[C@H](C)[C@@H](O[C@H]2C[C@@](C)(OC)[C@@H](O)[C@H](C)O2)[C@H](C)[C@@H](O[C@@H]2O[C@H](C)C[C@H](N(C)C)[C@H]2O)[C@](C)(O)C[C@@H](C)C(=O)[C@H](C)[C@@H](O)[C@]1(C)O | 594 | 544 | 634
CO[C@H]1O[C@@H]2O[C@@]3(C)CC[C@H]4[C@H](C)CC[C@@H]([C@H]1C)[C@@]24OO3 | 506 | 470 | 553
COc1cc2ncnc(Nc3ccc(F)c(Cl)c3)c2cc1OCCCN1CCOCC1 | 594 | 562 | 624
CCCNC(=O)c1cn2ncnc(Nc3cc(C(=O)NC4CC4)ccc3C)c2c1C | 583 | 539 | 654
[NH2][Pt]([NH2])([Cl])[Cl] | 514 | 528 | 576
NC(=O)OCC(COC(N)=O)c1ccccc1 | 460 | 497 | 554
CN1N(C2=CC=CC=C2)C(=O)C(=C1/C3=CC=CC=C3)/C(=O)C4=CC=C(C)C(=C4N)C5=CC=C6N=C(C)C=CC6=C5 | 553 | 531 | 634
Cc1ncc([N+](=O)[O-])n1CC(C)O (centres undefined) | 566 | 554 | 644
CCOC(=O)[C@@H](N)CCC(=O)N[C@@H](CSCc1ccccc1)C(=O)N[C@@H](C(=O)OCC)c1ccccc1 | 602 | 594 | 635
Cc1cn(-c2cc(NC(=O)c3ccc(C)c(Nc4nccc(-c5cccnc5)n4)c3)cc(C(F)(F)F)c2)cn1 | 417 | 438 | 506
Cc1cc(C)c2c(c1)[C@@H](N(Cc1cc(C(F)(F)F)cc(C(F)(F)F)c1)c1nnn(C)n1)CCCN2C[C@H]1CC[C@H](C(=O)O)CC1 | 529 | 489 | 582
CNCCN(C)Cc1c[nH]nc1-c1ccc(O[C@H]2C[C@H](OCCC3CCOCC3)C2)cc1 | 546 | 520 | 512
C[S+](=O)([O-])c1ccc(C(=O)Nc2ccc(Cl)c(-c3ccccn3)c2)c(Cl)c1 | 591 | 544 | 674
O=C(O)c1cccnc1 | 548 | 579 | 604
Nc1nc(-c2nn(Cc3ccccc3F)c3ncccc23)ncc1C1CC1 | 544 | 538 | 533
CCOc1cc(C(=O)Nc2ccc(Cl)c(-c3nc4ccccc4[nH]3)c2)cc(OCC)c1OCC | 549 | 477 | 618

SMILES | area under concentration-response curve (NCI-H295R) | area under concentration-response curve (CU-ACC1) | area under concentration-response curve (CU-ACC2)
COc1ccccc1[C@H](c1cccc2ccccc12)[C@@](C)(C#N)C(=O)N1CCC(c2cccc(C(F)(F)F)c2)CC1 | 587 | 566 | 665
CC(C)Cc1ccc([C@@H](C)C(=O)N[S+](C)(=O)[O-])cc1 | 553 | 492 | 586
COc1ccc(C(=O)N2CCN(c3ccc4c(c3)CCC(=O)N4)CC2)cc1OC | 554 | 458 | 562
O=C(O)c1ccc(CCCc2ccc(OCCc3ccc(F)cc3)cc2)o1 | 548 | 536 | 616
NC(=O)c1ncn([C@@H]2O[C@H](CO)[C@@H](O)[C@H]2O)n1 | 530 | 511 | 504
CC(=O)OCC(CCn1cnc2cnc(N)nc21)COC(C)=O | 570 | 565 | 596
CC1=C(F)C=CC(=C1)N2C(=O)\C=C/C3=C2C4=C([NH]C=C4)N=C3 | 527 | 519 | 509
O=[N+]([O-])c1cncn1CCN1CCOCC1 | 563 | 545 | 611
C/C1=C2/[N]3[Co+]456([OH])<-[N]7=C1[C@@H](CCC(N)=O)C(C)(C)/C7=C/C1=[N]->4C(=C(/C)C4=[N]->5[C@@](C)([C@H]3[C@H](CC(N)=O)[C@@]2(C)CCC(=O)NC[C@@H](C)OP(=O)([O-])O[C@H]2[C@@H](O)[C@@H](n3c[n]->6c5cc(C)c(C)cc53)O[C@@H]2CO)[C@@](C)(CC(N)=O)[C@@H]4CCC(N)=O)/[C@@](C)(CC(N)=O)[C@@H]1CCC(N)=O | 564 | 495 | 595
CC(C)c1cc(C(C)C)c(CC(=O)N[S+](=O)([O-])Oc2c(C(C)C)cccc2C(C)C)c(C(C)C)c1 | 480 | 456 | 454
C#CCN[C@@H]1CCc2ccccc21 | 590 | 565 | 642
CNC(=O)c1c(-c2ccc(F)cc2)oc2cc(N(CCO)[S+](C)(=O)[O-])c(C3CC3)cc12 | 496 | 470 | 580
C[C@H]1CNCCCN1[S+](=O)([O-])c1cccc2cncc(F)c12 | 551 | 530 | 589
Cn1c(=O)c2[nH]cnc2n(C)c1=O | 469 | 447 | 555
CC1(C)CC[C@@]2(CC[C@]3(C)\C(=C/C[C@@H]4[C@@]5(C)C[C@@H](O)[C@H](O)C(C)(C)[C@@H]5CC[C@@]34C)[C@@H]2C1)C(O)=O | 531 | 478 | 574
C=C[C@H]1CN2CCC1C[C@@H]2C(O)c1ccnc2ccc(OC)cc12 (some centres undefined) | 504 | 509 | 595
